According to US20140031296A1, “NEW SYNTHETIC PEPTIDES AND THEIR USE” (PERGAMUM AB, priority 2011, published 2014):
“Also recorded” adds a separate entry of the source.

What was measured:
MRSA (CCUG 41879) [1] = experiment: In vivo antimicrobial effect in excision wound model in rats; design: species or system rat; conditions: peptide in H2O 0.1, 0.5 and 2 mg/ml, single administration, 2 hours
Excerpt: FIG. 4. Dose-response effect of peptide 232 (SEQ ID NO 78)(A) and peptide 220 (SEQ ID NO 67)(B) on bacterial colonization of infected excision wounds in rats. […] Results are presented as relative bacterial survival (%) compared to control group±SEM (n=15 wounds). Statistical significance was estimated by Student's t test. *=p<0.05, **=p<0.01, ***=p<0.001.
The in vivo antimicrobial effects of the peptide 232 (SEQ ID NO: 78), and the peptide 220 (SEQ ID NO:67) were investigated in an excision wound model in rats. The wounds were inoculated with methicillin resistant S. aureus (MRSA) for two hours, followed by a single administration of peptide or control (H2O) for two hours before termination and harvest of the bacteria.

S. aureus (CCUG 1800) = experiment: Minimal microbicidal concentration (MMC99) assay, S. aureus; type: cell-based; conditions: for MMC99: S. aureus, Example 3; for MMC99 μM in 1% BHI medium / MMC99 μM in 50% SWF: screen 2, 2 hours; for MMC99 μM in 50% SWF: 50% heat inactivated simulated wound fluid
Description: Antimicrobial Activity was Measured as Bactericidal Effect on S. aureus Using Minimal Microbicidal Concentration, MMC99, Assay)
S. aureus (#1800; CCUG, Gothenburg, Sweden) cultured on blood-agar plates [Columbia agar (Oxoid, Basingstoke, UK) supplemented with 5% defibrinated horse blood (National Veterinary Institute (SVA), Uppsala, Sweden)] were transferred to brain heart infusion broth (3.7% BHI; Difco, BD Diagnostics, Franklin Lakes, N.J., USA) and incubated in a shaker at 250 rpm+37° C. over night. The culture was thereafter be diluted 1:10 in fresh BHI broth and incubated for additional two hours to reach log-phase growth. The bacteria were pelleted and suspended in 1% BHI medium (BHI broth diluted 100 times in ultra-pure water) to a concentration of 10^7 bacteria/ml as estimated by measuring optical density at 600 nm. Peptides were serially diluted by two-fold steps from 160 μM to 1.25 μM in 1% BHI medium. The peptides (100 μl) were thereafter incubated with bacteria (5 μl á 10^7 bact./ml) for 2 hours at +37° C. Drops (5 μl) of the suspension were placed on blood agar plates. The blood agar plates were incubated over night at +37° C. The MMC99 values, i.e. the lowest peptide concentration needed to achieve a 99% reduction of viable bacteria, were recorded (Table 3). The concentration of the bacterial suspension used in the assay was confirmed by viable counts on blood agar plates.
S. aureus (#1800; CCUG, Gothenburg, Sweden) cultured on blood-agar plates [Columbia agar (Oxoid, Basingstoke, UK) supplemented with 5% defibrinated horse blood (National Veterinary Institute (SVA), Uppsala, Sweden)] were transferred to brain heart infusion broth (3.7% BHI; Difco, BD Diagnostics, Franklin Lakes, N.J., USA) and incubated in a shaker at 250 rpm+37° C. over night. The culture was thereafter be diluted 1:10 in fresh BHI broth and incubated for additional two hours to reach log-phase growth. The bacteria were pelleted and suspended in 1% BHI medium (BHI broth diluted 100 times in ultra-pure water) to a final concentration of 10^7 bacteria/ml as estimated by measuring optical density at 600 nm.
Peptides were serially diluted by two-fold steps from 400 μM to 0.78 μM in either 1% BHI medium or in 50% heat inactivated simulated wound fluid [SWF, containing 1 part 0.1% peptone (Oxoid, Basingstoke, UK) in saline and 1 part fetal bovine serum, diluted 2 times in ultra-pure water].
The peptides (100 μl) were thereafter incubated with bacteria (5 μl a 10^7 bact./ml) for 2 hours at +37° C. Drops (5 μl) of the suspension were placed on blood agar plates. The blood agar plates were incubated over night at +37° C. The MMC99 values, i.e. the lowest peptide concentration needed to achieve a 99% reduction of viable bacteria were recorded (Table 6). The concentration of the bacterial suspension used in the assay was confirmed by viable counts on blood agar plates.
(§1) The antimicrobial effects of the peptides 232 (SEQ ID NO: 78), and 220 (SEQ ID NO:67) were analysed by MMC99 (minimal microbicidal concentration) assay against S. aureus (CCUG 1800), MRSA (CCUG 41879), P. aeruginosa (ATCC 15442), E. coli (CCUG 31246), S. pyogenes (CCUG 4207), P. acnes (CCUG 1794T), S. epidermidis (ATCC12228), K. pneumoniae (ATCC 13883), A. baumannii (ATCC 19606), and C. albicans (ATCC 64549). The peptides were purchased from Biopeptide Company (San Diego, Calif., USA) and Bachem AG (Bubendorf, Switzerland) and results are presented in Table 8A and 8B respectively.
Peptides were serially diluted in two different assay medium, 1% BHI medium (brain-heart infusion medium) or 50% heat inactivated simulated wound fluid (SWF), and thereafter incubated with the microorganisms for 2 hours. Drops of the suspension were placed on blood agar plates. The MMC99 values, i.e. the lowest peptide concentration needed to achieve a 99% reduction of viable microorganisms, were recorded. As presented in Table 8, all the peptides have the ability to kill microorganisms frequently appearing in infections. […]

MRSA (CCUG 41879) [2] = experiment: MMC99 assay, MRSA; type: cell-based
Description: as §1
(§2) Peptides were serially diluted in two different assay medium, 1% BHI medium (brain-heart infusion medium) or 50% heat inactivated simulated wound fluid (SWF), and thereafter incubated with the microorganisms for 2 hours. Drops of the suspension were placed on blood agar plates. The MMC99 values, i.e. the lowest peptide concentration needed to achieve a 99% reduction of viable microorganisms, were recorded. As presented in Table 8, all the peptides have the ability to kill microorganisms frequently appearing in infections.

E. coli (CCUG 31246) = experiment: MMC99 assay, E. coli; type: cell-based
Description: as §1, §2

P. acnes (CCUG 1794T) = experiment: MMC99 assay, P. acnes; type: cell-based
Description: as §1, §2

[3] = test system: P. aeruginosa (ATCC 15442); experiment: MMC99 assay, P. aeruginosa; type: cell-based
Description: as §1, §2

S. pyogenes (CCUG 4207) = experiment: MMC99 assay, S. pyogenes; type: cell-based
Description: as §1, §2

| Sequence | bacterial colonization of infected excision wounds (bacterial counts vs control) (MRSA (CCUG 41879) [1]) | MMC99 (S. aureus (CCUG 1800); 1% BHI) | MMC99 (S. aureus (CCUG 1800); 50% SWF) | MMC99 μM in 1% BHI medium (S. aureus (CCUG 1800)) | MMC99 μM in 50% SWF (S. aureus (CCUG 1800)) | MMC99 (MRSA (CCUG 41879) [2]; 1% BHI) | MMC99 (MRSA (CCUG 41879) [2]; 50% SWF) | MMC99 (E. coli (CCUG 31246); 1% BHI) | MMC99 (E. coli (CCUG 31246); 50% SWF) | MMC99 (P. acnes (CCUG 1794T); 1% BHI) | MMC99 (P. acnes (CCUG 1794T); 50% SWF) | MMC99 ([3]; 1% BHI) | MMC99 ([3]; 50% SWF) | MMC99 (S. pyogenes (CCUG 4207); 1% BHI) | MMC99 (S. pyogenes (CCUG 4207); 50% SWF) |
| --- | --- | --- | --- | --- | --- | --- | --- | --- | --- | --- | --- | --- | --- | --- | --- |
| QSLARKLFQWLRNLRKVA [Peptide 220] | significant reduction in bacterial counts; also recorded: pronounced antimicrobial effect | 7 µg/mL | 28 µg/mL | 12.5 µM | 25 µM | 6 µg/mL | 200 µg/mL | 3 µg/mL | >200 µg/mL | <3 µg/mL | 100 µg/mL | 7 µg/mL | >200 µg/mL | <3 µg/mL | 50 µg/mL |
| RRLWRRWMRKVL [Peptide 232] | significant reduction in bacterial counts; also recorded: pronounced antimicrobial effect | 5 µg/mL | 44 µg/mL | 12.5 µM | 25 µM | 6 µg/mL | 100 µg/mL | 5 µg/mL | >176 µg/mL | 6 µg/mL | >200 µg/mL | 5 µg/mL | >176 µg/mL | <3 µg/mL | >200 µg/mL |
